The test system of this test is coloncarcinoma cells HT29. In words: Kd on coloncarcinoma cells HT29. It counts as binding. How it is done: 0.9 ml of [^99mTc(OH2)3(CO)3]^+ as prepared in example 1 is mixed with 0.1 ml of 10^−3M His-Neurotensin(8-13) (HRRPYIIL) and kept in a sealed tube at 75° C. for one hour. After this time the reaction mixture is cooled to room temperature. As evident from reversed phase column HPLC the yield is >95%. The Kd of this compound on coloncarcinoma cells HT29 is 1.0 nM.

Regarding “HRRPYIIL [His-Neurotensin(8-13), His-Neurotensin(8-13) (HRRPYIIL) labelled with [99mTc(OH2)3(CO)3]+]”, the affinity, expressed as Kd, was 1 nM.

(Values after patent US6344178B1, “Method for the preparation of facial metal tricarbonyl compounds and their use in the labelling of biologically active substrates” (Mallinckrodt Inc., priority 1997, dated 2002).)
